Reference: publication PMC10799935, “Discovery of a peripheral 5HT2A antagonist as a clinical candidate for metabolic dysfunction-associated steatohepatitis” (Nature Communications, 2024)
Where “and” joins values, the source holds several entries; their conditions need not be identical. Identical values can stand only once. Like-named read-outs stand apart in the source and are kept apart here.

Key:
[1] = system: HFD-fed C57BL/6J mice; assay: DIO mice: liver histology (H&E), NAFLD activity score (steatosis, inflammation, ballooning); format: in vivo, mouse; design: key to Steatosis (NAFLD Activity Score), individual animals / Steatosis score, group mean: steatosis score 0-3 (0 <5% to 3 >66% fat accumulation); key to Total NAFLD Activity Score, difference between medians: Actual (treated vs. Vehicle): total NAS, 0-8 scale (sum of steatosis, inflammation, ballooning); conditions: DIO mice; for Lobular inflammation score, Mean Diff. (Vehicle vs. treated) / Steatosis score, Mean Diff. (Vehicle vs. treated) / Total NAFLD Activity Score, Mean Diff. (Vehicle vs. treated): Dunnett's multiple comparisons test; for Lobular inflammation score, group mean / Steatosis score, group mean: PO
Text: Epididymal, inguinal, and liver were harvested, fixed in 10% (w/v) neutral buffered formalin solution (Sigma-Aldrich), and embedded in paraffin. Five-micron-thick tissue sections were deparaffinized, rehydrated, and stained with hematoxylin and eosin (H&E)[10]. The total NAFLD activity score (NAS) is a widely used measure of grading for steatosis, lobular inflammation, and ballooning. The total NAS ranges from 0-8 and is the sum of unweighted scores for steatosis (0: <5%, 1: 5 ~ 33%, 2: 33 ~ 66%, 3: >66% fat accumulation in the liver), lobular inflammation (0: no foci inflammation in x200 field, 1: <2 foci inflammation, 2: 2 ~ 4 foci inflammation, 3: >4 foci inflammation), and hepatocellular ballooning (0: none, 1: few ballooning cells, 2: prominent ballooning cells). MASH was diagnosed when NAS was >5, while non-MASH was diagnosed when NAS was <4. According to the MASH CRN scoring system, a certified pathologist determined the NAS[39]. The histological scoring was performed blindly, without knowledge of any other information.

[2] = system: HFD-fed C57BL/6J mice; assay: DIO mice: blood profiling (serum cholesterol, triglyceride); format: in vivo, mouse; conditions: for Serum TG levels, Mean Diff. (Vehicle vs. treated) / Serum total cholesterol levels, Mean Diff. (Vehicle vs. treated) / Serum TG levels, group mean / Serum total cholesterol levels (CHO), group mean: DIO mice; for Serum TG levels, Mean Diff. (Vehicle vs. treated) / Serum total cholesterol levels, Mean Diff. (Vehicle vs. treated): Dunnett's multiple comparisons test; for Serum TG levels, group mean / Serum total cholesterol levels (CHO), group mean: PO
Protocol: Blood samples were obtained by cardiac puncture, and plasma was isolated. Blood profiling was performed by GC Pharma (Green Cross Corporation). Plasma TG and cholesterol were detected with an in vitro enzymatic colorimetric assay (CHOL2 and TRIGL; Roche, Germany) using a Cobas 8000 clinical analyzer with a c702 module (Roche).

[3] = system: CDAHFD-fed C57BL/6 J mice; assay: CDAHFD mice (12 weeks): body weight and clinical signs; format: in vivo, mouse; design: Body weight: unit: g; conditions: for Body weight, Mean Diff.: Tukey; for Body weight, Mean (one-way ANOVA): mean of 13 weekly values
Text: C57BL/6 J male mice were purchased from the Japan SLC. Inc (Hamamatsu, Japan). Mice (5 weeks old) were fed Teklad Certitied Irradiated Global 18% protein rodent diet purchased from Dooyeol Biotech Co. Ltd (Seoul, South Korea) during the acclimation period. The liver fibrosis/inflammation-induced groups were CDAHFD-fed (A06071302, Research diet). […] All animal experiments complied with the relevant ethical regulations.

[4] = 3weeks
[5] = in vitro; conditions: mouse

Cc1nc2n(c(=O)c1CCN1CCC(=C3c4ccc(Cl)cc4CCc4cccnc43)CC1)CCCC2O (stereo not drawn) [Compound 11c]
steatosis, lobular inflammation, and hepatocyte ballooning in liver tissue (H&E) ([1]; 5 and 10 mpk, dose-dependent manner): markedly reduced | Hepatocyte ballooning score, difference between medians: Actual (treated vs. Vehicle) ([1]; 5mpk): 0 | Lobular inflammation score, difference between medians: Actual (treated vs. Vehicle) ([1]; 5mpk): -0.5 | Steatosis score, difference between medians: Actual (treated vs. Vehicle) ([1]; 5mpk): 0 | Total NAFLD Activity Score, difference between medians: Actual (treated vs. Vehicle) ([1]; 5mpk): -1.5 | Lobular inflammation score, Mean Diff. (Vehicle vs. treated) ([1]; 5mpk): 0.3333 | Steatosis score, Mean Diff. (Vehicle vs. treated) ([1]; 5mpk): 0 | Total NAFLD Activity Score, Mean Diff. (Vehicle vs. treated) ([1]; 5mpk): 1.071 | Lobular inflammation score, group median ([1]; 5mpk, Mann-Whitney analysis): 1.500, n=6 | Steatosis score, group median ([1]; 5mpk, Mann-Whitney analysis): 2.000, n=6 | Total NAFLD Activity Score, group median ([1]; 5mpk, Mann-Whitney analysis): 5.000, n=7 | Hepatocyte ballooning score, difference between medians: Actual (treated vs. Vehicle) ([1]; 10mpk): -1 | Lobular inflammation score, difference between medians: Actual (treated vs. Vehicle) ([1]; 10mpk): -1 | Steatosis score, difference between medians: Actual (treated vs. Vehicle) ([1]; 10mpk): -1.5 | Total NAFLD Activity Score, difference between medians: Actual (treated vs. Vehicle) ([1]; 10mpk): -3.5 | Lobular inflammation score, Mean Diff. (Vehicle vs. treated) ([1]; 10mpk): 0.8333 | Steatosis score, Mean Diff. (Vehicle vs. treated) ([1]; 10mpk): 1.5 | Total NAFLD Activity Score, Mean Diff. (Vehicle vs. treated) ([1]; 10mpk): 3.667 | Hepatocyte ballooning score, group median ([1]; 10mpk, Mann-Whitney analysis): 1.000, n=6 | Lobular inflammation score, group median ([1]; 10mpk, Mann-Whitney analysis): 1.000, n=6 | Steatosis score, group median ([1]; 10mpk, Mann-Whitney analysis): 0.5000, n=6 | Total NAFLD Activity Score, group median ([1]; 10mpk, Mann-Whitney analysis): 3.000, n=6 | Lobular inflammation score, group mean ([1]; 5mpk): 1.5 | Steatosis score, group mean ([1]; 5mpk, 5 mg/kg): 2 | Steatosis score, group mean ([1]; 10mpk): 0.5 | Lobular inflammation score, group mean ([1]; 10mpk, 10 mg/kg): 1 | Serum TG levels, Mean Diff. (Vehicle vs. treated) ([2]; 5mpk): 32.28 mg/dL | Serum total cholesterol levels, Mean Diff. (Vehicle vs. treated) ([2]; 5mpk): -18.72 mg/dL | Serum TG levels, Mean Diff. (Vehicle vs. treated) ([2]; 10mpk): 36.37 mg/dL | Serum total cholesterol levels, Mean Diff. (Vehicle vs. treated) ([2]; 10mpk): 0.9883 mg/dL | Serum TG levels, group mean ([2]; 5mpk): 71.94 mg/dL | Serum total cholesterol levels (CHO), group mean ([2]; 5mpk, 5 mg/kg): 220.6 mg/dL | Serum TG levels, group mean ([2]; 10mpk): 67.86 mg/dL | Serum total cholesterol levels (CHO), group mean ([2]; 10mpk, 10 mg/kg): 200.9 mg/dL | serum triglyceride levels ([2]; high-fat diet-induced NAFLD mice): significant reduction | body weight changes among the CDAHFD groups ([3]; 12 weeks): not significantly different | clinical signs during the study period ([3]; CDAHFD mice, 5 and 10 mpk PO daily, 12 weeks): no abnormal clinical signs were observed | Body weight, Average ([3]; CDAHFD+11c 5mpk, week 0, 5 mice): 20.6 g | Body weight ([3]; CDAHFD+11c 5mpk, week 0, individual mouse, in g (unit assumed)): 21.7 and 20.6 and 20.4 and 20.7 and 19.7 | Body weight, Average ([3]; CDAHFD+11c 5mpk, week 1, 5 mice): 20.6 g | Body weight ([3]; CDAHFD+11c 5mpk, week 1, individual mouse, in g (unit assumed)): 21.2 and 20.8 and 20.5 and 20.7 and 19.7 | Body weight, Average ([3]; CDAHFD+11c 5mpk, week 2, 5 mice): 20.1 g | Body weight, Average ([3]; CDAHFD+11c 5mpk, week 3, 5 mice): 19.9 g | Body weight, Average ([3]; CDAHFD+11c 5mpk, week 4, 5 mice): 20.3 g | Body weight, Average ([3]; CDAHFD+11c 5mpk, week 5, 5 mice): 20.5 g | Body weight ([3]; CDAHFD+11c 5mpk, week 5, individual mouse, in g (unit assumed)): 20.8 and 21.2 and 20.5 and 20.2 and 19.9 | Body weight, Average ([3]; CDAHFD+11c 5mpk, week 6, 5 mice): 20.8 g | Body weight ([3]; CDAHFD+11c 5mpk, week 6, individual mouse): 20.9 (2×) and 21.4 and 20.7 and 20.3 | Body weight, Average ([3]; CDAHFD+11c 5mpk, week 7, 5 mice): 21.4 g | Body weight ([3]; CDAHFD+11c 5mpk, week 7, individual mouse): 22.0 (2×) and 21.7 and 21.0 and 20.4 | Body weight, Average ([3]; CDAHFD+11c 5mpk, week 8, 5 mice): 21.6 g | Body weight ([3]; CDAHFD+11c 5mpk, week 8, individual mouse, in g (unit assumed)): 22.3 and 22.1 and 21.9 and 21.5 and 20.3 | Body weight, Average ([3]; CDAHFD+11c 5mpk, week 9, 5 mice): 22.1 g | Body weight ([3]; CDAHFD+11c 5mpk, week 9, individual mouse): 23.0 and 22.4 (2×) and 21.7 and 20.9 | Body weight, Average ([3]; CDAHFD+11c 5mpk, week 10, 5 mice): 22.2 g | Body weight ([3]; CDAHFD+11c 5mpk, week 10, individual mouse, in g (unit assumed)): 23.1 and 22.5 and 22.4 and 22.3 and 20.8 | Body weight, Average ([3]; CDAHFD+11c 5mpk, week 11, 5 mice): 22.5 g | Body weight ([3]; CDAHFD+11c 5mpk, week 11, individual mouse, in g (unit assumed)): 23.6 and 23.2 and 22.9 and 22.3 and 20.7 | Body weight, Average ([3]; CDAHFD+11c 5mpk, week 12, 5 mice): 22.5 g | Body weight ([3]; CDAHFD+11c 5mpk, week 12, individual mouse, in g (unit assumed)): 23.4 and 23.6 and 22.5 and 22.1 and 20.9 | Body weight, Average ([3]; CDAHFD+11c 10mpk, week 0, 5 mice): 20.6 g | Body weight ([3]; CDAHFD+11c 10mpk, week 0, individual mouse): 21.3 (2×) and 20.1 and 20.3 and 20.0 | Body weight, Average ([3]; CDAHFD+11c 10mpk, week 1, 5 mice): 20.4 g | Body weight ([3]; CDAHFD+11c 10mpk, week 1, individual mouse): 20.1 and 19.8 and 20.3 and 20.9 (2×) | Body weight, Average ([3]; CDAHFD+11c 10mpk, week 2, 5 mice): 20.3 g | Body weight, Average ([3]; CDAHFD+11c 10mpk, week 3, 5 mice): 20.3 g | Body weight, Average ([3]; CDAHFD+11c 10mpk, week 4, 5 mice): 20.5 g | Body weight, Average ([3]; CDAHFD+11c 10mpk, week 5, 5 mice): 20.9 g | Body weight ([3]; CDAHFD+11c 10mpk, week 5, individual mouse): 20.9 (2×) and 20.6 and 22.0 and 20.3 | Body weight, Average ([3]; CDAHFD+11c 10mpk, week 6, 5 mice): 21.2 g | Body weight ([3]; CDAHFD+11c 10mpk, week 6, individual mouse, in g (unit assumed)): 21.4 and 20.9 and 22.2 and 20.8 and 20.5 | Body weight, Average ([3]; CDAHFD+11c 10mpk, week 7, 5 mice): 21.5 g | Body weight ([3]; CDAHFD+11c 10mpk, week 7, individual mouse, in g (unit assumed)): 21.9 and 21.0 and 22.3 and 21.1 and 21.2 | Body weight, Average ([3]; CDAHFD+11c 10mpk, week 8, 5 mice): 21.8 g | Body weight ([3]; CDAHFD+11c 10mpk, week 8, individual mouse): 22.0 and 21.2 and 23.0 and 21.4 (2×) | Body weight, Average ([3]; CDAHFD+11c 10mpk, week 9, 5 mice): 21.8 g | Body weight ([3]; CDAHFD+11c 10mpk, week 9, individual mouse, in g (unit assumed)): 22.6 and 21.2 and 22.8 and 21.5 and 21.1 | Body weight, Average ([3]; CDAHFD+11c 10mpk, week 10, 5 mice): 22 g | Body weight ([3]; CDAHFD+11c 10mpk, week 10, individual mouse, in g (unit assumed)): 22.4 and 21.7 and 23.1 and 21.6 and 21.4 | Body weight, Average ([3]; CDAHFD+11c 10mpk, week 11, 5 mice): 22.4 g | Body weight ([3]; CDAHFD+11c 10mpk, week 11, individual mouse): 22.7 and 22.1 (2×) and 23.5 and 21.8 | Body weight, Average ([3]; CDAHFD+11c 10mpk, week 12, 5 mice): 22.5 g | Body weight ([3]; CDAHFD+11c 10mpk, week 12, individual mouse): 22.9 and 22.3 (2×) and 23.3 and 21.6 | Body weight, Mean Diff. ([3]; Column A (Vehicle, no CDAHFD) vs. Column C (11c 5mpk), in g (unit assumed)): 3.52 | Body weight, Mean Diff. ([3]; Column A (Vehicle, no CDAHFD) vs. Column D (11c 10mpk), in g (unit assumed)): 3.44 | Body weight, Mean Diff. ([3]; Column B (CDAHFD+vehicle) vs. Column C (11c 5mpk), in g (unit assumed)): 0.1462 | Body weight, Mean Diff. ([3]; Column B (CDAHFD+vehicle) vs. Column D (11c 10mpk), in g (unit assumed)): 0.06615 | Body weight, Mean Diff. ([3]; Column C (11c 5mpk) vs. Column D (11c 10mpk)): -0.08 | Body weight, Mean (one-way ANOVA) ([3]; Column C (CDAHFD+11c 5mpk), in g (unit assumed)): 21.17 | Body weight, Mean (one-way ANOVA) ([3]; Column D (CDAHFD+11c 10mpk), in g (unit assumed)): 21.25 | Chemical stability ([4]; 25 °C): 99.8% | Chemical stability ([4]; 60 °C): 99.6% | IC50 [5]: > 100 µM
